Where two headings read alike, the source gives them in different places.
Target: eel acetylcholinesterase (AChE) (Electrophorus electricus, UniProt O42275)
Test: Eel AChE fluorescence assay (AMPLEX Red kit)
Type: biochemical
Settings: for inhibition of AChE activity (in words): eel AChE, 20 μM
Protocol: Enzymatic reactions consisted of 50 μM acetylcholine, 200 μM AIVIPLEX™ Red reagent, 1 U/mL horseradish peroxidase, 0.1 U/mL choline oxidase and 0.096 U/mL acetylcholinesterase, with 30 1% DMSO. […] Control reactions lacking acetylcholinesterase but containing 5 μM H2O2 in presence of compounds were analyzed at the same wavelength to exclude compounds that display assay interference. Dose-response curves were performed in duplicate.

[1] = eel AChE activity, at 20 μM, read-out: Percentage inhibition

Sequence of eel acetylcholinesterase (AChE) (O42275 24-633): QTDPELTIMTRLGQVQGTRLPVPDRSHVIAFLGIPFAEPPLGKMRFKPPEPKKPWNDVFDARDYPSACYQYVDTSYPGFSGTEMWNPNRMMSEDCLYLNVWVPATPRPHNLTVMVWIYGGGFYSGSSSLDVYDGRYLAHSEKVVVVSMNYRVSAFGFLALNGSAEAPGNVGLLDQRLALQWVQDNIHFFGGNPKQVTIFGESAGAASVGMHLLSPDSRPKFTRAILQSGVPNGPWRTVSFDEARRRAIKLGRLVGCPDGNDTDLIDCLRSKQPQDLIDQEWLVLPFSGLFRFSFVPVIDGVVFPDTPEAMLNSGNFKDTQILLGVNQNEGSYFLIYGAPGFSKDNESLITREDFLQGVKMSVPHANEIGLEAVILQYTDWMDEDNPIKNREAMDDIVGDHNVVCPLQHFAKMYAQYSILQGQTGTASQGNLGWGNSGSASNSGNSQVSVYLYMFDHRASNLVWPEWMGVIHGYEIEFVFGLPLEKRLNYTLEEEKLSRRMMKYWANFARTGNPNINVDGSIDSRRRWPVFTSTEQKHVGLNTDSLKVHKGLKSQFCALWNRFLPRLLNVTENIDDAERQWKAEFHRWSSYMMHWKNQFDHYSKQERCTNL

Row | Compound | inhibition at 20 µM [1] | inhibition of AChE activity (in words) | assay interference test versus enzyme-free H2O2 reaction (parallel dose-response with 5 μM H2O2) | inhibition at 20 µM (read-out: inhibition of enzyme activity compared to DMSO control (screen)) | Hill slope, eel AChE dose-response (sixteen-point serial dilution, four-parameter fit)
1 | O=C1c2cc(O)ccc2-c2ccc(O)cc21 [2,7-dihydroxy-9H-fluoren-9-one] | 30% | neither fluorenone, nor the close derivative 2,7-dihydroxy-9H-fluoren-9-one inhibit AChE activity |  |  | 
2 | Nc1c2ccccc2nc2ccccc12 [aminacrine] | 99.2% |  |  |  | 
3 | Cc1cc(N)c2ccccc2[n+]1CCCCCCCCCC[n+]1c(C)cc(N)c2ccccc21 [dequalinium chloride] |  |  | likely represent true inhibition of the enzyme | ≥ 50% | 0.87
4 | O=C1c2ccccc2-c2ccccc21 [fluorenone] | 3% |  |  |  | 
5 | CCN(CC)CCNc1ccc(C)c2sc3ccccc3c(=O)c12 [lucanthone] | 11% | did not show appreciable activity |  |  | 

— US20230330045A1 (priority 2020, published 2023)
